Where “and” joins values, the source holds several entries; their conditions need not be identical. Equal values may be shown once.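 The compound was tested at five concentrations on cells cultured in 96-well plates, with a 48-hour exposure period. GI50 marks 50% less growth. TGI is the concentration that stops growth completely.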

Test systems include CCRF-CEM leukemia; SK-MEL-5 melanoma; SF-268 CNS; SNB-19 CNS; IGROV1 ovarian; A498 renal; 786-0 renal; CAKI-1 renal; NCI-H23 lung; RPMI-8226 leukemia.
Test in all cases: DTP human tumour cell line panel, 48 h

In general, GI50 refers to the concentration giving 50% growth inhibition. For orientation: TGI means the concentration giving total growth inhibition. Lower therefore signals greater sensitivity of the cells. As for `CCN(Cc1cccc(F)c1F)c1ccc(CO)c(Cl)c1`, the GI50 in the experiment on CCRF-CEM leukemia is 20.1 µM; in the experiment on SK-MEL-5 melanoma, 11.2 µM; in the experiment with SF-268 CNS, 19.3 µM; in the experiment on SNB-19 CNS, 17 µM; with IGROV1 ovarian, 0.0668 µM; with A498 renal, 0.0217 µM. The GI50 in the experiment with 786-0 renal is 13.6 µM; with CAKI-1 renal, 0.4 µM; with NCI-H23 lung, 13.6 µM; in the experiment with RPMI-8226 leukemia, 2.32 µM. Besides, the TGI with CCRF-CEM leukemia was 69.1 µM; in the experiment on SK-MEL-5 melanoma, 23.4 µM; in the experiment with SF-268 CNS, 42.7 µM; in the experiment with SNB-19 CNS, over 58.6 µM; in the experiment with IGROV1 ovarian, 0.335 µM; in the experiment with A498 renal, 0.102 µM. The TGI stood at 32.2 µM with 786-0 renal, 5.59 µM in the experiment with CAKI-1 renal, 51.6 µM in the experiment with NCI-H23 lung and 39.7 µM with RPMI-8226 leukemia.
Regarding `O=C(c1ccccc1O)c1[nH]c(Cl)c(Cl)c1-n1c(C(=O)c2ccccc2O)cc(Cl)c1Cl`, the GI50 was 0.467 µM and 0.382 µM in the experiment with CCRF-CEM leukemia; 0.314 µM and 0.22 µM in the experiment with SK-MEL-5 melanoma; 0.677 µM and 0.546 µM with SF-268 CNS; 1.49 µM and 0.917 µM with SNB-19 CNS; 1.54 µM and 1.45 µM with IGROV1 ovarian; 0.231 µM and 0.332 µM in the experiment on A498 renal. Moreover, the GI50 in the experiment on 786-0 renal is 2.11 µM and 1.73 µM; in the experiment with CAKI-1 renal, 0.425 µM and 0.385 µM; with NCI-H23 lung, 0.418 µM and 0.409 µM; with RPMI-8226 leukemia it was 0.366 µM and 0.265 µM. In addition, the TGI in the experiment with CCRF-CEM leukemia is 16.9 µM and 12.2 µM; in the experiment with SK-MEL-5 melanoma, 1.38 µM and 0.589 µM; with SF-268 CNS, 13.4 µM and 14.6 µM; in the experiment on SNB-19 CNS, 15.4 µM and 15.6 µM; with IGROV1 ovarian, 20.5 µM and 15.1 µM; in the experiment on A498 renal, 2.04 µM and 2.75 µM. Also, the TGI with 786-0 renal is 11.2 µM and 7.99 µM; with CAKI-1 renal, 10.6 µM and 3.1 µM; in the experiment on NCI-H23 lung, 6.8 µM and 11.7 µM; with RPMI-8226 leukemia, 4.21 µM and 1.57 µM.
For the molecule `Cc1cc(NS(=O)(=O)c2ccc(NC(=O)COC(=O)c3cccc4c(=O)c5ccccc5[nH]c34)cc2)no1`, the TGI with CCRF-CEM leukemia, with SK-MEL-5 melanoma, in the experiment on SF-268 CNS, in the experiment with SNB-19 CNS, in the experiment with IGROV1 ovarian and with A498 renal was over 100 µM each time. Besides, the concentration for total growth inhibition (TGI) in the experiment on 786-0 renal, in the experiment with CAKI-1 renal, with NCI-H23 lung and in the experiment with RPMI-8226 leukemia was over 100 µM in each case.
`Cc1cc(O)cc(C)c1/C=C/c1cncc(C(=O)OC(C)(C)C)c1`: the GI50 in the experiment with CCRF-CEM leukemia is 3.13 µM; in the experiment with SK-MEL-5 melanoma, 10.2 µM; in the experiment with SF-268 CNS it was 20.7 µM; in the experiment with SNB-19 CNS it was over 25 µM; in the experiment with IGROV1 ovarian it was 13.2 µM; in the experiment with A498 renal, 8.09 µM. Moreover, the GI50 in the experiment with 786-0 renal was 19.1 µM; in the experiment on CAKI-1 renal, 12.3 µM; with NCI-H23 lung it was over 20 µM; with RPMI-8226 leukemia, over 22.4 µM. The concentration for total growth inhibition (TGI) with CCRF-CEM leukemia, with SK-MEL-5 melanoma, in the experiment with SF-268 CNS, with SNB-19 CNS, with IGROV1 ovarian and with A498 renal was over 25 µM each time. Also, the TGI with 786-0 renal, with CAKI-1 renal, in the experiment on NCI-H23 lung and in the experiment on RPMI-8226 leukemia was over 25 µM each time.
Consider `COc1ccc(/C(=N/O)c2cc(OC)c(OC)c(OC)c2)c(OC)c1N`, for which the GI50 is 4.09 µM in the experiment on CCRF-CEM leukemia; 5.34 µM with SK-MEL-5 melanoma; 14.6 µM with SF-268 CNS; 5.32 µM in the experiment on SNB-19 CNS; 7.71 µM in the experiment with IGROV1 ovarian; 4.01 µM in the experiment on A498 renal. In addition, the GI50 is 12.7 µM with 786-0 renal, 5.53 µM with CAKI-1 renal, 7.06 µM with NCI-H23 lung and 5.35 µM in the experiment on RPMI-8226 leukemia. In addition, the TGI in the experiment with CCRF-CEM leukemia, in the experiment on SK-MEL-5 melanoma, with SF-268 CNS, in the experiment with SNB-19 CNS, with IGROV1 ovarian and in the experiment with A498 renal was over 100 µM each time. The TGI in the experiment on 786-0 renal, in the experiment with CAKI-1 renal, with NCI-H23 lung and with RPMI-8226 leukemia was over 100 µM each time.
For `O=Nc1c(O)c2ccccc2c2ccccc12`, the GI50 with CCRF-CEM leukemia is 1.25 µM; in the experiment with SK-MEL-5 melanoma, 0.56 µM; with SF-268 CNS, 1.43 µM; in the experiment with SNB-19 CNS it was 1.13 µM; in the experiment with IGROV1 ovarian, 1.83 µM; with A498 renal it was 1.6 µM. The GI50 was 2.84 µM in the experiment with 786-0 renal, 2.95 µM in the experiment with CAKI-1 renal, 0.464 µM in the experiment on NCI-H23 lung and 1.2 µM in the experiment on RPMI-8226 leukemia. Besides, the concentration for total growth inhibition (TGI) with CCRF-CEM leukemia is over 100 µM; with SK-MEL-5 melanoma it was 1.77 µM; in the experiment with SF-268 CNS, 3.75 µM; in the experiment with SNB-19 CNS, 2.55 µM; with IGROV1 ovarian, 3.51 µM; in the experiment with A498 renal it was 3.07 µM. The TGI is 7.04 µM in the experiment on 786-0 renal, 9 µM in the experiment with CAKI-1 renal, 3.86 µM in the experiment with NCI-H23 lung and over 21.9 µM with RPMI-8226 leukemia.
On to `O=C(Sc1sc(=S)sc1SC(=O)c1ccccc1)c1ccccc1`, for which the TGI in the experiment on CCRF-CEM leukemia was over 100 µM; in the experiment with SK-MEL-5 melanoma, over 100 µM; in the experiment on SF-268 CNS it was over 100 µM; with SNB-19 CNS, over 100 µM; in the experiment with IGROV1 ovarian, over 100 µM; in the experiment with A498 renal, 78 µM. The TGI in the experiment with 786-0 renal, in the experiment on CAKI-1 renal, in the experiment on NCI-H23 lung and with RPMI-8226 leukemia was over 100 µM in each case.
Consider `COC(=O)C(=O)C(CC(=O)Nc1cccc(C(F)(F)F)c1)C(=O)OC` (stereo not given), for which the TGI in the experiment with CCRF-CEM leukemia, in the experiment on SK-MEL-5 melanoma, with SF-268 CNS, with SNB-19 CNS, in the experiment on IGROV1 ovarian and in the experiment on A498 renal was over 100 µM in each case. Besides, the TGI in the experiment on 786-0 renal, with CAKI-1 renal, in the experiment on NCI-H23 lung and in the experiment with RPMI-8226 leukemia was over 100 µM throughout.
For the molecule `NC(CO)C(=O)NCC(=O)O` (stereo not given), the TGI with CCRF-CEM leukemia, with SK-MEL-5 melanoma, in the experiment with SF-268 CNS, with SNB-19 CNS, in the experiment with IGROV1 ovarian and in the experiment on A498 renal was over 100 µM each time. In addition, the TGI in the experiment with 786-0 renal, in the experiment on CAKI-1 renal, in the experiment with NCI-H23 lung and with RPMI-8226 leukemia was over 100 µM in each case.
Regarding `COc1cc2c(cc1OC)[C@@H]([C@H](O)c1ccccc1)NCC2`, the TGI in the experiment on CCRF-CEM leukemia, in the experiment on SK-MEL-5 melanoma, in the experiment with SF-268 CNS, in the experiment with SNB-19 CNS, in the experiment with IGROV1 ovarian and in the experiment on A498 renal was over 100 µM each time. Besides, the TGI in the experiment on 786-0 renal, in the experiment on CAKI-1 renal, in the experiment on NCI-H23 lung and in the experiment with RPMI-8226 leukemia was over 100 µM each time.

Values taken from PubChem BioAssay (NCI).
